According to patent US11820766B2, “Monoacylglycerol lipase modulators” (Janssen Pharmaceutica NV, priority 2018, dated 2023):

Each compound was assayed against T1, human MGL from HeLa cells (Homo sapiens, UniProt Q99685) (assay: In vitro MGL activity assay: [glycerol-1,3-3H]-oleyl glycerol cleavage by MGL from HeLa cells). Details: 300 nM [Glycerol-1,3-3H]-oleyl glycerol, one hour.
T1 construct: combining endogenously expressed MGL from HeLa cells with test compounds; endogenous in cells; host or cells: HeLa cells / cell homogenates
T1 sequence (Q99685 1-303): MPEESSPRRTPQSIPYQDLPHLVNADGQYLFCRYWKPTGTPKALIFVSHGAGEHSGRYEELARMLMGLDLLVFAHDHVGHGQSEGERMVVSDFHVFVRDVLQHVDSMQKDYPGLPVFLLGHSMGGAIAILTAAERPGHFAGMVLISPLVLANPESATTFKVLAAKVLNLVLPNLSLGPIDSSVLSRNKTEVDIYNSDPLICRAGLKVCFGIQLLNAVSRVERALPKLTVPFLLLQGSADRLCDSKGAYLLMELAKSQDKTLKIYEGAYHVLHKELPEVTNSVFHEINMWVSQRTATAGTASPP
Format: biochemical
From the text: MGL is the predominant hydrolase in HeLa cells/cell homogenates.

IC50 [nM] | SMILES
31 | C[C@H]1c2nn(C)c(-c3cc(F)c(F)c(F)c3)c2CCN1C(=O)c1c[nH]c2c(F)cccc12 [Example 359, [(7S)-2,7-Dimethyl-3-(3,4,5-trifluorophenyl)-5,7-dihydro-4H-pyrazolo[3,4-c]pyridin-6-yl]-(7-fluoro-1H-indol-3-yl)methanone]
163 | Cc1nc2ncccn2c1C(=O)N1CCc2c(nn(C)c2-c2cc(F)c(F)c(F)c2)[C@@H]1C [Example 458, [(7S)-2,7-Dimethyl-3-(3,4,5-trifluorophenyl)-5,7-dihydro-4H-pyrazolo[3,4-c]pyridin-6-yl]-(2-methylimidazo[1,2-a]pyrimidin-3-yl)methanone]
19.6 | C[C@H]1c2nn(C)c(-c3cc(F)c(F)c(F)c3)c2CCN1C(=O)c1ccc2c(c1)CCCO2 [Example 580, Chroman-6-yl-[(7S)-2,7-dimethyl-3-(3,4,5-trifluorophenyl)-5,7-dihydro-4H-pyrazolo[3,4-c]pyridin-6-yl]methanone]
172 | Cc1ccnc2c(C(=O)N3CCc4c(nn(C)c4-c4cc(F)c(F)c(F)c4)[C@@H]3C)cnn12 [Example 450, [(7S)-2,7-Dimethyl-3-(3,4,5-trifluorophenyl)-5,7-dihydro-4H-pyrazolo[3,4-c]pyridin-6-yl]-(7-methylpyrazolo[1,5-a]pyrimidin-3-yl) methanone]
14.6 | Cc1ncc2ccc(C(=O)N3CCc4c(nn(C)c4-c4cc(F)c(F)c(F)c4)[C@@H]3C)cn12 [Example 418, [(7S)-2,7-Dimethyl-3-(3,4,5-trifluorophenyl)-5,7-dihydro-4H-pyrazolo[3,4-c]pyridin-6-yl]-(3-methylimidazo[1,5-a]pyridin-6-yl)methanone]

Same assay, conditions: 300 nM [Glycerol-1,3-3H]-oleyl glycerol, one hour incubation

IC50 [nM] | SMILES
15.9 | CC1c2nn(C)c(-c3cc(F)cc(Cl)c3)c2CCN1C(=O)c1ccc2ncccc2c1 (stereo not shown) [Example 177, (3-(3-Chloro-5-fluorophenyl)-2,7-dimethyl-2,4,5,7-tetrahydro-6H-pyrazolo[3,4-c]pyridin-6-yl)(quinolin-6-yl)methanone]
33.3 | C[C@H]1c2nn(C)c(-c3cc(F)c(F)c(F)c3)c2CCN1C(=O)c1cccc2cc[nH]c12 [Example 205, (S)-(2,7-Dimethyl-3-(3,4,5-trifluorophenyl)-2,4,5,7-tetrahydro-6H-pyrazolo[3,4-c]pyridin-6-yl)(1H-indol-7-yl)methanone]
1.89 | C[C@H]1c2nn(C)c(-c3cc(F)c(F)c(F)c3)c2CCN1C(=O)c1nccc2ccccc12 [Example 237, (S)-(2,7-Dimethyl-3-(3,4,5-trifluorophenyl)-2,4,5,7-tetrahydro-6H-pyrazolo[3,4-c]pyridin-6-yl)(isoquinolin-1-yl)methanone]
44.3 | C[C@H]1c2nn(-c3ccccc3)c(-c3ccccc3)c2CCN1C(=O)c1ccc2ncccc2c1 (single isomer, unassigned) [Example 115]
258 | Cn1nc2c(c1-c1ccccc1)CCN(C(=O)c1ccnc3c(F)cccc13)C2 [Example 96, (8-Fluoroquinolin-4-yl)(2-methyl-3-phenyl-2,4,5,7-tetrahydro-6H-pyrazolo[3,4-c]pyridin-6-yl)methanone]
7.77 | C[C@H]1c2nn(C)c(-c3cc(F)c(F)c(F)c3)c2CCN1C(=O)c1c(F)cccc1-n1cncn1 [Example 280, [(7S)-2,7-Dimethyl-3-(3,4,5-trifluorophenyl)-5,7-dihydro-4H-pyrazolo[3,4-c]pyridin-6-yl]-[2-fluoro-6-(1,2,4-triazol-1-yl)phenyl]methanone]
102 | C[C@H]1c2nn(C)c(-c3ccc(OC(F)F)c(F)c3)c2CCN1C(=O)c1ccc2nccnc2c1 [Example 189, (S)-(3-(4-(Difluoromethoxy)-3-fluorophenyl)-2,7-dimethyl-2,4,5,7-tetrahydro-6H-pyrazolo[3,4-c]pyridin-6-yl)(quinoxalin-6-yl)methanone]
46.2 | C[C@H]1c2nn(C)c(-c3cccc(Cl)c3)c2CCN1C(=O)c1ccc2ncccc2n1 [Example 131, (S)-(3-(3-Chlorophenyl)-2,7-dimethyl-2,4,5,7-tetrahydro-6H-pyrazolo[3,4-c]pyridin-6-yl)(1,5-naphthyridin-2-yl)methanone]
